# Data taken from patent US10774122B2, “ERG targeted therapy” (The Regents of the University of Michigan, priority 2017, dated 2020).
# Like-named read-outs stand apart in the source and are kept apart here. Where a SMILES comes first, the peptide text is derived from it. Where no end group is shown, it is not given here. [ ]: non-standard residue; d: D form.
# Tests used:
# [1] = tested on: VCaP (ERG fusion-positive) xenografts; assay: VCaP xenograft mouse model, tumor growth; conditions: 20 mg/kg dose, p<0.01
# Protocol: Athymic Nude-Foxnlnu male mice were procured from Harlan Laboratories, Inc (Indianapolis, Ind.). All procedures involving mice were approved by the University Committee on Use and Care of Animals (UCUCA) at the University of Michigan and conformed to their relevant regulatory standards. […] Statistical significance for Kaplan-Meier analysis was determined by the log-rank (Mantel-Cox) test.
# Athymic Nude-Foxnlnu male mice were procured from Harlan Laboratories, Inc. (Indianapolis, Ind.). VCaP (2×10^6 cells) or PC3 (5×10^5 cells) were resuspended in 100 μl of saline with 50% Matrigel (BD Biosciences, Becton Drive, NJ) and implanted subcutaneously into the flank regions on both sides of the mice. Mice were anesthetized using a cocktail of xylazine (80-120 mg/kg, IP) and ketamine (10 mg/kg, IP) for chemical restraint before tumor cells implantation. For short term assays, all tumors were staged for three weeks before starting peptidomimetic treatment. After week 3 (VCaP cells) or 12 days (PC3 cells), mice (10 per treatment group) were treated with peptidomimetics (25 mg/kg or 10 mg/kg as indicated, IP) daily five times a week.
# Tumor growth was recorded every three days using digital calipers and tumor volumes were calculated using the formula (π/6) (L×W2), where L=length of tumor and W=width. Body weight was monitored weekly over the course of the study. At the end of the xenograft studies, mice were anaesthetized and blood was collected by cardiac puncture and tumors were preserved for further biochemical and immunofluorescence analysis. […] Survival analysis was carried out using the GraphPad Prism 4.0 software (GraphPad Software, San Diego, Calif.). Statistical significance for Kaplan-Meier analysis was determined by the log-rank (Mantel-Cox) test. All procedures involving mice were approved by the University Committee on Use and Care of Animals (UCUCA) at the University of Michigan and conform to their relevant regulatory standards.
# [2] = biological target: T1, ERG (Homo sapiens, UniProt P11308); assay: ERG:peptide binding by biolayer interferometry (OctetRED); conditions: for binding to ERG: OctetRED, result in words
# T1 sequence (P11308 1-479): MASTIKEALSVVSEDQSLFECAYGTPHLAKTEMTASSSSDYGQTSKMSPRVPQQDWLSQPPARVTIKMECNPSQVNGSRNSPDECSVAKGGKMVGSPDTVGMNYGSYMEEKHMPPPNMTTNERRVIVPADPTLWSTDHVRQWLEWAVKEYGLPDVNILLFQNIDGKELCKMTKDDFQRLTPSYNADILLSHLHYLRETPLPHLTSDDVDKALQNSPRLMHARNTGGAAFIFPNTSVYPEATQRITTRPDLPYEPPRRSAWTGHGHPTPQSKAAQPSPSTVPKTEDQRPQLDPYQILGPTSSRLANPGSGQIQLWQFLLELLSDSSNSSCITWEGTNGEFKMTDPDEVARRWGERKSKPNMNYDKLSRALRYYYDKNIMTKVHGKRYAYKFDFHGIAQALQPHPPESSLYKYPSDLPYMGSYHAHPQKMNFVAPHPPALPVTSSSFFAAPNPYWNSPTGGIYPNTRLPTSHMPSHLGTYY
# Protocol: (§1) The interaction coefficients between ERG and synthetic peptides or peptidomimetics were determined by biolayer interferometry technology using the Octet Red system (ForteBio). Purified ERG and GUS proteins were biotinylated by EZLink NHS-PEG4 Biotinylation Kit (Thermo Scientific) following the manufacturer's protocol and any unincorporated biotin was removed from the reactions with Zeba 2 ml desalt columns (Thermo). Biotinylated proteins (500 μg/ml) were then incubated with super streptavidin biosensors in binding buffer (20 mM HEPES pH 7.4, 150 mM NaCl), blocked with 10 μg/ml biocytin and washed three times in binding buffer. Peptides were serially diluted in binding buffer, mixed with the protein-coupled biosensors and peptidomimetic:protein association/dissociation was monitored for 10 min at 25° C. Nonspecific binding from the signal obtained from peptidomimetic:GUS interactions was subtracted from that of peptidomimetic:ERG interactions and baseline signal drift was controlled by monitoring immobilized ERG without peptide. Octet Red analysis software was used to analyze the data.
# [3] = biological target: T2, ERG in VCaP cells (Homo sapiens, UniProt P11308); assay: Immunoblot of ERG protein in treated VCaP cells; conditions: proteasome inhibitor co-treatment
# Protocol: (§2) VCaP cells were seeded in 6-well plates at 0.5×10^6 cells/ml and after allowing cells to attach, cells were harvested and homogenized in NP40 lysis buffer (Sigma) containing a complete protease inhibitor cocktail (Roche). Ten micrograms of each protein extract was boiled in SDS sample buffer, size fractionated by SDS-PAGE, and transferred onto a PVDF membrane (GE Healthcare). […] Following three washes in TBS-T, the blots were incubated with horseradish peroxidase conjugated secondary antibody and the signals visualized by enhanced chemiluminescence system according to manufacturer's instructions (GE Healthcare).
# [4] = biological target: T3, ERG (Homo sapiens, UniProt P11308); assay: Kd[μM]
# T3 construct: cDNAs encoding full-length ERG and GUS were cloned into pDEST10 vector; His; made in house; host or cells: SF9 insect cells (Bac-to-Bac baculovirus)
# Text: Table printed on a drawing sheet, FIG. 13
# Head of the field: Kd[μM]
# Where the first naming reader finds the target: passage: Capping of the EIP1 peptide at both the N- and C-terminus abolished binding to ERG (FIG. 13).
# [5] = biological target: T3, ERG; assay: Kd[μM]; remark: listed apart in the source
# Text: Table printed on a drawing sheet, FIG. 14 Head of the field: Kd[μM] […] Where the first naming reader finds the target: passage: the importance of the PYL residues for binding to ERG was identified
# [6] = biological target: T4, ERG:DNA-PKcs interaction (Homo sapiens, UniProt P11308); assay: In vitro peptide competitive pull-down assay (cell-free); conditions: Halo-ERG with purified DNA-PKcs, increasing peptide concentrations
# T4 sequence (P11308 1-479): T1 sequence (P11308 1-479)
# Protocol: (§3) Halo-ERG fusion protein was expressed using in vitro transcription/translation system as described above. […] Protein mixtures were incubated with or without the peptides in PBS-T (0.1% Tween) at 4° C. overnight. Simultaneously, HaloLink beads (Promega) were blocked in 5% BSA at 4° C. overnight. The next day 10 μl of HaloLink beads were mixed with the protein-peptide mixture, incubated at RT for 1 hour, washed with 4× in PBS-T and eluted into SDS sample buffer. […] HaloLink beads without incubation with fusion proteins were used as negative controls.
# [7] = biological target: T5, ERG:AR interaction (Homo sapiens, UniProt P11308); assay: as above; conditions: Halo-ERG with recombinant AR, increasing peptide concentrations
# T5 sequence (P11308 1-479): T1 sequence (P11308 1-479)
# Protocol: as §3
# [8] = biological target: T2, ERG in VCaP cells
# Protocol: The following primary and secondary antibodies were used: mouse-anti-ERG (Biocare) and goat-anti-mouse-Cy5 (Jackson Immuno-Research) respectively. […] Emission from individual fluorophores was detected sequentially. Image processing was performed in Imaris and colocalization analysis was done in Imaris (Bitplane). Colocalization was calculated as the percentage of FITC spots that colocalized with ERG spots in the nucleus.
# [9] = biological target: ERG_Y373A (Homo sapiens, UniProt P11308, Y373A); assay: biochemical; assay type: binding
# Protocol: as §1
# [10] = biological target: T4, ERG:DNA-PKcs interaction
# Protocol: as §3
# [11] = biological target: T6, ERG:EBS DNA interaction (Homo sapiens, UniProt P11308); assay type: biochemical
# T6 construct: endogenous in cells; host or cells: VCaP cells (ATCC): cultured cells, lysates or extracts, or VCaP xenograft tumours in nude mice
# Protocol: To determine the inhibitory activity of the peptide against the ERG:DNA interaction, electrophoretic mobility shift assays (EMSAs) were performed. Double stranded ERG ETS binding sequence (5′ […] 3′ (SEQ ID NO:109)) was end labeled using Biotin 3′ End DNA Labeling Kit (Pierce). For each binding reaction, VCaP cell extract was incubated with 1 μg poly d (I-C), 2 μl of EMSA binding buffer (1.5% glycerol, 75 mM KCl, 0.375 mM DTT, 12.5 mM NaCl, 0.375 mM phenylmethylsulfonyl fluoride [PMSF]) and 5 μM biotin-labeled EBS in the presence or absence of the peptides as indicated for 30 min at room temperature. The reaction mixtures were loaded onto 6% TBE gels (Invitrogen) and electrophoresed at 120 V for 2 hr at 4° C. in […] Tris-Borate-EDTA (TBE). Probes were transferred to nylon membrane (Biodyne B, Pall) in a semidry blotting device at 300 mA for 30 min. The membrane was baked for 30 min at 85° C. in a dry oven. Biotinylated oligonucleotides were detected by probing with streptavidin-conjugated horseradish peroxidase and visualized by enhanced chemiluminescence (Pierce).
# [12] = biological target: T5, ERG:AR interaction
# Protocol: as §3
# [13] = tested on: VCaP cells; assay: Immunofluorescence confocal microscopy of FITC-labeled peptide uptake; assay type: cell-based; conditions: FITC-labeled peptides
# Protocol: After 2 hours incubation, cells were washed two times in PBS, and fixed for 15 min in 100% methanol. After washing an additional three times in PBS, cells were mounted using Vectashield with DAPI (Vector laboratories). Images were captured using 100× oil objective lens on an Olympus Confocal microscope at the University of Michigan microscopy imaging lab.
# [14] = tested on: Ewing sarcoma cells containing the EWS-ERG fusion; assay type: cell-based
# Text: (A) Pull down of ERG in Ewing sarcoma cells containing a EWS-ERG fusion and reduced tumor growth in xenografts models of Ewing sarcoma. (B) Tumors containing the EWS-FLI1 fusion or osteosarcomas (A204) are not affected by treatments with peptides of the disclosure. […] Similarly, invasion potential was reduced by EIP1 and EIP2 treatment in Ewing sarcoma cells containing the EWS-ERG fusion.
# [15] = tested on: cells containing the EWS-FLI1 fusion; assay: DNA damage in Ewing sarcoma cells; assay type: cell-based
# [16] = biological target: T7, ERG:DNA-PKcs interaction (Homo sapiens, UniProt P11308); assay: IP-Western blot in VCaP cells
# T7 sequence (P11308 33-479 limits assumed): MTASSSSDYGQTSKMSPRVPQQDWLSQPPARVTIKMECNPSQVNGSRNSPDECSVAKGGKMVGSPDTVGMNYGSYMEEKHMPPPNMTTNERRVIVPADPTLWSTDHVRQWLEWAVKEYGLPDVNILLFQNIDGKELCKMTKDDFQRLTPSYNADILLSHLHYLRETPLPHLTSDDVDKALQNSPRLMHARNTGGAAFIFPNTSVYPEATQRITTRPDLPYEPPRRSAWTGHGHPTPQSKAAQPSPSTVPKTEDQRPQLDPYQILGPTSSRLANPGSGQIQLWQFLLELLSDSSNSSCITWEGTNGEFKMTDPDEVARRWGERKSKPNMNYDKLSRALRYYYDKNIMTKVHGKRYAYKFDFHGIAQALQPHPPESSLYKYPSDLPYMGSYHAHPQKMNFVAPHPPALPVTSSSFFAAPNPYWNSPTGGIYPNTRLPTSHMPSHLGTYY
# Protocol: as §2
# (§4) Cell pellets or tumors treated with or without the peptidomimetics were lysed in cell lysis buffer (20 mM MOPS, pH 7.0, 2 mM EGTA, 5 mM EDTA, 30 mM sodium fluoride, 60 mM β-glycerophosphate, 20 mM sodium pyrophosphate, 1 mM sodium orthovanadate, 1% Triton X-100, 1 mM DTT, protease inhibitor cocktail (Roche)). Cell lysates (0.5-1.0 mg) were pre-cleaned with protein A/G agarose beads (Santa Cruz) by incubation for 1 hour with shaking at 4° C. followed by centrifugation at 2000 rpm for 3 minute. Lysates were then incubated with 2 μg ERG antibody (Santa Cruz, C-17) at 4° C. for 4 hours with shaking prior to addition of 20 μl protein A/G agarose beads and incubated at 4° C. overnight. […] Samples were then analyzed by SDS-PAGE and Western blot analysis as described above.
# [17] = biological target: ERG:AR interaction (Homo sapiens, UniProt P11308); assay: IP-Western blot in VCaP cells
# Protocol: as §2, §4
# [18] = tested on: RWPE1-ERG cells; assay: Boyden chamber basement membrane matrix invasion assay
# Protocol: (§5) Complete media was added to the lower chamber as a chemoattractant. […] Invasive cells, located on the lower side of the membranes, were stained with crystal violet, air dried and photographed. To quantify the relative number of invaded cells, colorimetric assays were performed by treating the inserts with 150 μl of 10% acetic acid (v/v) and measuring absorbance of each sample in a spectrophotometer at 560 nm (GE Healthcare).
# [19] = tested on: PC3-ERG cells; assay: as above
# Protocol: as §5
# [20] = biological target: T8, TMPRSS2:ERG gene fusion product (endogenous ERG) (Homo sapiens, UniProt P11308); assay: Biotin-peptide pull-down from VCaP cell lysates, immunoblot and mass spectrometry; assay type: binding; conditions: 53 kDa band of pull-downs, mass spectrometry
# T8 construct: endogenous in cells; host or cells: VCaP cells (ATCC): cultured cells, lysates or extracts, or VCaP xenograft tumours in nude mice
# Protocol: Approximately 1 mg of soluble VCaP cell lysate prepared in RIPA buffer (Invitrogen) was incubated with varying amounts of biotinylated peptides for 2 hours at 4° C. HaloLink agarose beads (20 μl) were added to the peptide-lysate mixture and incubated for an additional 4 hours. Beads were then pelleted by centrifugation, washed three times in PBS-T and loaded into an SDSPAGE gel followed by Western blot analysis. Total VCaP cell lysate was loaded for positive control.
# The samples were treated with SDS loading buffer supplied with 10 mM DTT for 5 min at 85° C. The proteins were alkylated by adding iodoacetamide to the final concentration of 15 mM. The samples were subjected to SDS-PAGE and the whole lanes were cut out and digested with trypsin in-gel for 2 hours. […]
# The resulting spectrum files were transformed into MGF format by MSConvert software and interrogated by MASCOT 2.4 search engine using human UniProt database version 15 concatenated with reverse sequences for estimation of false discovery rate (FDR) and with a list of common contaminants. […] The peptide FDR was calculated as 2×(decoy_hits)/(target+decoy hits). Spectral counts for all detected proteins were assembled using an in-house written Python script. […]
# Sequence of ERG_Y373A (P11308 whole entry Y373A): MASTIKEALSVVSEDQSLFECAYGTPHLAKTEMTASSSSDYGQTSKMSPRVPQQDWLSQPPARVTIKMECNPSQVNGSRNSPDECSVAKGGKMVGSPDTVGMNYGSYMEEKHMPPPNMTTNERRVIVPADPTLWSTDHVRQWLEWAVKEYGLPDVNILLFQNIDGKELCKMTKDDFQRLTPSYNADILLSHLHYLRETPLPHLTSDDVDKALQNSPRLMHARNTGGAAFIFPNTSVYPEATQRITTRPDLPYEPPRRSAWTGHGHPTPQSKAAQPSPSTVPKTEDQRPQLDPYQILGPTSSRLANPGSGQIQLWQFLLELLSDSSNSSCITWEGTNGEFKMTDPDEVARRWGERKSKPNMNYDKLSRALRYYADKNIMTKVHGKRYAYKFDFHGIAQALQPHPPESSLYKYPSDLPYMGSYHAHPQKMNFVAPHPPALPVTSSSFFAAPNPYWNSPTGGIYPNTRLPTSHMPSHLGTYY
compound,measurement,setting,value
CC(C)C[C@@H](NC(=O)[C@@H](CO)NC(=O)[C@@H](Cc1ccccc1)NC(=O)CNC(=O)[C@@H](CO)NC(=O)[C@@H](CC(C)C)NC(=O)[C@H]1CCCN1C(=O)CNC(=O)CNC(=O)[C@@H](CCCNC(=N)N)NC(=O)[C@@H](CCCCN)NC(=O)[C@@H](CCCCN)NC(=O)[C@@H](CCCNC(=N)N)NC(=O)[C@@H](CCCNC(=N)N)NC(=O)[C@@H](CCC(N)=O)NC(=O)[C@@H](CCCNC(=N)N)NC(=O)[C@@H](CCCNC(=N)N)NC(=O)[C@@H](CCCNC(=N)N)NC(=O)CN)C(=O)O [RI-EIP2] (H-G[dR][dR][dR][dQ][dR][dR][dK][dK][dR]GG[dP][dL][dS]G[dF][dS][dL]-OH),tumor growth of VCaP xenografts,[1],significantly delayed tumor growth
same,Kd,[2],1.28 µM
CC(C)C[C@H](NC(=O)[C@H](CCc1ccccc1)NC(=O)CN1CCOCC1)C(=O)N[C@@H](Cc1ccccc1)C(=O)N[C@@H](CC(C)C)C(=O)[C@@]1(C)CO1 [carfilzomib],effect on RI-EIP1-induced degradation of ERG protein,[3],completely inhibited
"Ac-LPPELFT-NH2 [7LT-4E, Ac- LPPELFT -NH2]",Kd,[4],3.6 µM
"Ac-LPPYLF-NH2 [6LF-A, Ac- LPPYLF -NH2]",Kd,[5],> 100 µM
FTFGSLP [FTFGSLP],Kd,[2],3.9 µM
"H-PPYLFT-NH2 [6PT-N, H2N- PPYLFT -NH2]",Kd,[5],11.5 µM
"LPPALFT [muEIP1, LPPALFT]",binding to ERG,[2],failed to bind
same,disruption of direct ERG:DNA-PKcs interaction,[6],not
same,disruption of direct ERG:AR interaction,[7],not
"LPPTFLY [Scr, LPPTFLY, reference compound]",binding to ERG,[2],failed to bind
"LPPYLFT [EIP1, LPPYLFT]",extent of green-red colocalization in the nucleus,[8],78±5%
same,Kd,[9],> 100 µM
same,Kd,"[2]; OctetRED biolayer interferometry, values in text",0.6 µM
same,disruption of direct ERG:DNA-PKcs interaction,[10],disrupted
same,disruption of ERG:EBS DNA interaction,[11],effectively disrupted
same,disruption of direct ERG:AR interaction,[12],disrupted
same,entry into VCaP cells,[13],did not penetrate the cell membrane
same,DNA damage caused by oncogenic ERG (EWS-ERG fusion),[14],reduce DNA damage
same,invasion potential,[14],reduced
same,DNA damage in cells containing the EWS-FLI1 fusion,[15],no effect
LPPYLFTGGRKKRRQRRRG [TAT-EIP1],block of ERG:DNA-PKcs interaction in VCaP cells,[16],significantly blocked
same,block of ERG:AR interaction in VCaP cells,[17],significantly blocked
same,invasion of RWPE1-ERG cells,[18],significantly attenuated
same,PC3 cell invasion driven by overexpression of ERG,[19],inhibited
LRFGTLP [LRFGTLP],Kd,[2],7.9 µM
"LSAGSAP [muEIP2, LSAGSAP, reference compound]",binding to ERG,[2],failed to bind
same,spectral counts for the ERG peptide NTGGAAFIFPNTSVYPEATQR,[20],2 spectral counts
"LSFGSLP [EIP2, LSFGSLP]",disruption of direct ERG:DNA-PKcs interaction,[10],disrupted
same,disruption of direct ERG:AR interaction,[12],disrupted
same,DNA damage caused by oncogenic ERG (EWS-ERG fusion),[14],reduce DNA damage
same,invasion potential,[14],reduced
same,DNA damage in cells containing the EWS-FLI1 fusion,[15],no effect
LSFGSLPGGRKKRRQRRRG [TAT-EIP2],block of ERG:DNA-PKcs interaction in VCaP cells,[16],significantly blocked
same,block of ERG:AR interaction in VCaP cells,[17],significantly blocked
same,invasion of RWPE1-ERG cells,[18],significantly attenuated
same,PC3 cell invasion driven by overexpression of ERG,[19],inhibited
